From patent US6525001B1, “Substituted pyrimidine and pyridine herbicides” (Mid-American Commercialization Corporation, priority 1997, dated 2003)

Legend:
Type in all cases: in vivo
Design in all cases: key: 0 is no effect; 10 is complete control
[1] = system: smallflower flatsedge (Cyperus difformis); assay: Test B flood test
Procedure, shortened: (§1)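 Flood test on plants grown to the 2-leaf stage; treated plants kept in greenhouse twelve to sixteen days, then visually rated against controls on a 0 (no effect) to 10 (complete control) scale.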

[2] = system: bamyardgrass (Echinochloa crus-galli); assay: Test B flood test
Procedure, shortened: as §1

[3] = system: duck salad (Heteranthera limosa); assay: Test B flood test
Procedure, shortened: as §1

rice (Oryza sativa) = assay: Test B flood test
Procedure, shortened: as §1

[4] = system: crabgrass (Digitaria sanguinalis); assay: Test B pre-/postemergence
Text: (§2) Seeds of bedstraw (Galium aparine), blackgrass (Alopecurus myosuroides), broadleaf signalgrass (Brachiaria decumbens), cocklebur (Xanthium strumarium), corn (Zea mays), crabgrass (Digitaria sanguinalis), giant foxtail (Setaria faberii), lambsquarters (Chenopodium album), momingglory (Ipomoea hederacea), pigweed (Amaranthus retroflexus), rape (Brassica napus), soybean (Glycine max), sugar beet (Beta vulgaris), velvetleaf (Abutilon theophrasti), wheat (Triticum aestivum), wild oat (Avena fatua) and purple nutsedge (Cyperus rotundus) tubers were planted and treated preemergence with test chemicals formulated in a non-phytotoxic solvent mixture which included a surfactant.
(§3) At the same time, these crop and weed species were also treated with postemergence applications of test chemicals formulated in the same manner. Plants ranged in height from 2 to 18 cm (1- to 4-leaf stage) for postemergence treatments. Plant species in the flood test consisted of rice (Oryza sativa), smallflower flatsedge (Cyperus difformis), duck salad (Heteranthera limosa) and bamyardgrass (Echinochloa crus-galli) grown to the 2-leaf stage for testing. Treated plants and controls were maintained in a greenhouse for twelve to sixteen days, after which all species were compared to controls and visually evaluated. Plant response ratings, summarized in Table B, are based on a scale of 0 to 10 where 0 is no effect and 10 is complete control. A dash (−) response means no test result.

wild oat (Avena fatua) = assay: Test B pre-/postemergence
Text: as §2, §3

[5] = system: wheat (Triticum aestivum); assay: Test B pre-/postemergence
Text: as §2, §3

[6] = system: broadleaf signalgrass (Brachiaria decumbens); assay: Test B pre-/postemergence
Text: as §2, §3

[7] = system: purple nutsedge (Cyperus rotundus); assay: Test B pre-/postemergence
Text: as §2, §3

corn (Zea mays) = assay: Test B pre-/postemergence
Text: as §2, §3

[8] = system: pigweed (Amaranthus retroflexus); assay: Test B pre-/postemergence
Text: as §2, §3

[9] = system: giant foxtail (Setaria faberii); assay: Test B pre-/postemergence
Text: as §2, §3

[10] = system: cocklebur (Xanthium strumarium); assay: Test B pre-/postemergence; settings: Preemergence
Text: as §2, §3

[11] = system: sugar beet (Beta vulgaris); assay: Test B pre-/postemergence
Text: as §2, §3

soybean (Glycine max) = assay: Test B pre-/postemergence
Text: as §2, §3

rape (Brassica napus) = assay: Test B pre-/postemergence
Text: as §2, §3

[12] = system: momingglory (Ipomoea hederacea); assay: Test B pre-/postemergence
Text: as §2, §3

[13] = system: bedstraw (Galium aparine); assay: Test B pre-/postemergence
Text: as §2, §3

[14] = system: blackgrass (Alopecurus myosuroides); assay: Test B pre-/postemergence
Text: as §2, §3

[15] = system: velvetleaf (Abutilon theophrasti); assay: Test B pre-/postemergence
Text: as §2, §3

[16] = Rate 125 g/ha, Postemergence, flood test
[17] = Rate 250 g/ha, Postemergence (flood test species)
[18] = Rate 500 g/ha, Postemergence (flood test species)

Cc1cnc(-c2ccccc2)nc1Cn1ccc(C(F)(F)F)n1 [Compound 7]
4: Plant response rating, S. Flatsedge [1, 18]
5: Plant response rating, Giant foxtail ([9]; Rate 500 g/ha, Preemergence) | Plant response rating, Soybean (soybean (Glycine max); Rate 500 g/ha, Postemergence) | Plant response rating, Rape (rape (Brassica napus); Rate 125 g/ha, Postemergence) | Plant response rating, Morningglory ([12]; Rate 500 g/ha, Postemergence)
3: Plant response rating, Redroot pigweed ([8]; Rate 125 g/ha, Postemergence) | Plant response rating, Sugarbeets ([11]; Rate 125 g/ha, Postemergence) | Plant response rating, Soybean (soybean (Glycine max); Rate 125 g/ha, Postemergence) | Plant response rating, Soybean (soybean (Glycine max); Rate 250 g/ha, Postemergence) | Plant response rating, Bedstraw ([13]; Rate 125 g/ha, Postemergence) | Plant response rating, Bedstraw ([13]; Rate 250 g/ha, Postemergence) | Plant response rating, Bedstraw ([13]; Rate 500 g/ha, Postemergence)
7: Plant response rating, Redroot pigweed ([8]; Rate 250 g/ha, Postemergence) | Plant response rating, Redroot pigweed ([8]; Rate 500 g/ha, Postemergence) | Plant response rating, Rape (rape (Brassica napus); Rate 500 g/ha, Postemergence)
1: Plant response rating, S. Flatsedge [1, 16] | Plant response rating, Barnyardgrass [2, 16] | Plant response rating, Barnyardgrass [2, 17] | Plant response rating, Crabgrass ([4]; Rate 250 g/ha, Preemergence) | Plant response rating, B. signalgrass ([6]; Rate 125 g/ha, Postemergence) | Plant response rating, B. signalgrass ([6]; Rate 250 g/ha, Postemergence) | Plant response rating, B. signalgrass ([6]; Rate 500 g/ha, Postemergence) | Plant response rating, Corn (corn (Zea mays); Rate 125 g/ha, Postemergence) | Plant response rating, Giant foxtail ([9]; Rate 125 g/ha, Postemergence) | Plant response rating, Giant foxtail ([9]; Rate 250 g/ha, Postemergence) | Plant response rating, Giant foxtail ([9]; Rate 250 g/ha, Preemergence) | Plant response rating, Giant foxtail ([9]; Rate 500 g/ha, Postemergence) | Plant response rating, Sugarbeets ([11]; Rate 500 g/ha, Preemergence) | Plant response rating, Morningglory ([12]; Rate 125 g/ha, Postemergence) | Plant response rating, Blackgrass ([14]; Rate 500 g/ha, Postemergence) | Plant response rating, Velvetleaf ([15]; Rate 125 g/ha, Postemergence) | Plant response rating, Velvetleaf ([15]; Rate 250 g/ha, Postemergence)
2: Plant response rating, S. Flatsedge [1, 17] | Plant response rating, Barnyardgrass [2, 18] | Plant response rating, Ducksalad [3, 18] | Plant response rating, Crabgrass ([4]; Rate 250 g/ha, Postemergence) | Plant response rating, Crabgrass ([4]; Rate 500 g/ha, Postemergence) | Plant response rating, Crabgrass ([4]; Rate 500 g/ha, Preemergence) | Plant response rating, Corn (corn (Zea mays); Rate 250 g/ha, Postemergence) | Plant response rating, Corn (corn (Zea mays); Rate 500 g/ha, Postemergence) | Plant response rating, Redroot pigweed ([8]; Rate 250 g/ha, Preemergence) | Plant response rating, Redroot pigweed ([8]; Rate 500 g/ha, Preemergence) | Plant response rating, Morningglory ([12]; Rate 250 g/ha, Postemergence) | Plant response rating, Velvetleaf ([15]; Rate 500 g/ha, Postemergence)
0: Plant response rating, Ducksalad [3, 16] | Plant response rating, Ducksalad [3, 17] | Plant response rating, Rice (rice (Oryza sativa); [16]) | Plant response rating, Rice (rice (Oryza sativa); [17]) | Plant response rating, Rice (rice (Oryza sativa); [18]) | Plant response rating, Crabgrass ([4]; Rate 125 g/ha, Postemergence) | Crabgrass plant response rating ([4]; Rate 125 g/ha, Preemergence) | Plant response rating, Wild oats (wild oat (Avena fatua); Rate 125 g/ha, Postemergence) | Wild oats plant response rating (wild oat (Avena fatua); Rate 125 g/ha, Preemergence) | Plant response rating, Wild oats (wild oat (Avena fatua); Rate 250 g/ha, Postemergence) | Plant response rating, Wild oats (wild oat (Avena fatua); Rate 250 g/ha, Preemergence) | Plant response rating, Wild oats (wild oat (Avena fatua); Rate 500 g/ha, Postemergence) | Plant response rating, Wild oats (wild oat (Avena fatua); Rate 500 g/ha, Preemergence) | Plant response rating, Wheat ([5]; Rate 125 g/ha, Postemergence) | Wheat plant response rating ([5]; Rate 125 g/ha, Preemergence) | Plant response rating, Wheat ([5]; Rate 250 g/ha, Postemergence) | Plant response rating, Wheat ([5]; Rate 250 g/ha, Preemergence) | Plant response rating, Wheat ([5]; Rate 500 g/ha, Postemergence) | Plant response rating, Wheat ([5]; Rate 500 g/ha, Preemergence) | B. signalgrass plant response rating ([6]; Rate 125 g/ha, Preemergence) | Plant response rating, B. signalgrass ([6]; Rate 250 g/ha, Preemergence) | Plant response rating, B. signalgrass ([6]; Rate 500 g/ha, Preemergence) | Plant response rating, Nutsedge ([7]; Rate 125 g/ha, Postemergence) | Nutsedge plant response rating ([7]; Rate 125 g/ha, Preemergence) | Plant response rating, Nutsedge ([7]; Rate 250 g/ha, Postemergence) | Plant response rating, Nutsedge ([7]; Rate 250 g/ha, Preemergence) | Plant response rating, Nutsedge ([7]; Rate 500 g/ha, Postemergence) | Plant response rating, Nutsedge ([7]; Rate 500 g/ha, Preemergence) | Corn plant response rating (corn (Zea mays); Rate 125 g/ha, Preemergence) | Plant response rating, Corn (corn (Zea mays); Rate 250 g/ha, Preemergence) | Plant response rating, Corn (corn (Zea mays); Rate 500 g/ha, Preemergence) | Redroot pigweed plant response rating ([8]; Rate 125 g/ha, Preemergence) | Giant foxtail plant response rating ([9]; Rate 125 g/ha, Preemergence) | Cocklebur plant response rating ([10]; Rate 125 g/ha) | Plant response rating, Cocklebur ([10]; Rate 250 g/ha) | Plant response rating, Cocklebur ([10]; Rate 500 g/ha) | Sugarbeets plant response rating ([11]; Rate 125 g/ha, Preemergence) | Plant response rating, Sugarbeets ([11]; Rate 250 g/ha, Preemergence) | Soybean plant response rating (soybean (Glycine max); Rate 125 g/ha, Preemergence) | Plant response rating, Soybean (soybean (Glycine max); Rate 250 g/ha, Preemergence) | Plant response rating, Soybean (soybean (Glycine max); Rate 500 g/ha, Preemergence) | Rape plant response rating (rape (Brassica napus); Rate 125 g/ha, Preemergence) | Plant response rating, Rape (rape (Brassica napus); Rate 250 g/ha, Preemergence) | Plant response rating, Rape (rape (Brassica napus); Rate 500 g/ha, Preemergence) | Morningglory plant response rating ([12]; Rate 125 g/ha, Preemergence) | Plant response rating, Morningglory ([12]; Rate 250 g/ha, Preemergence) | Plant response rating, Morningglory ([12]; Rate 500 g/ha, Preemergence) | Bedstraw plant response rating ([13]; Rate 125 g/ha, Preemergence) | Plant response rating, Bedstraw ([13]; Rate 250 g/ha, Preemergence) | Plant response rating, Bedstraw ([13]; Rate 500 g/ha, Preemergence) | Plant response rating, Blackgrass ([14]; Rate 125 g/ha, Postemergence) | Blackgrass plant response rating ([14]; Rate 125 g/ha, Preemergence) | Plant response rating, Blackgrass ([14]; Rate 250 g/ha, Preemergence) | Plant response rating, Blackgrass ([14]; Rate 500 g/ha, Preemergence) | Velvetleaf plant response rating ([15]; Rate 125 g/ha, Preemergence) | Plant response rating, Velvetleaf ([15]; Rate 250 g/ha, Preemergence) | Plant response rating, Velvetleaf ([15]; Rate 500 g/ha, Preemergence)
6: Plant response rating, Rape (rape (Brassica napus); Rate 250 g/ha, Postemergence)
8: Plant response rating, Sugarbeets ([11]; Rate 250 g/ha, Postemergence) | Plant response rating, Sugarbeets ([11]; Rate 500 g/ha, Postemergence)
